Values belong to the compound of their own block, whether it stands above or below them.
Experiments:
Assay in all cases: radiometric filter-binding kinase assay, Kinase HotSpot
Settings in all cases: compound 0.5 µM; ATP 10 µM
NUAK2 (human) = NUAK2 (human) (UniProt Q9H093)
MST4 (human) = MST4 (human) (UniProt Q9P289)
GSK3A (human) = GSK3A (human) (UniProt P49840)
CSNK1G2 (human) = CSNK1G2 (human) (UniProt P78368)
SGK3 (human) = SGK3 (human) (UniProt Q96BR1)
PKN2 (human) = PKN2 (human) (UniProt Q16513)
AKT1 (human) = AKT1 (human) (UniProt P31749)
PRKCD (human) = PRKCD (human) (UniProt Q05655)
RPS6KB1 (human) = RPS6KB1 (human) (UniProt P23443)
TAOK3 (human) = TAOK3 (human) (UniProt Q9H2K8)
PRKD2 (human) = PRKD2 (human) (UniProt Q9BZL6)
CDK3 CCNE1 (human) = CDK3 CCNE1 (human) (UniProt Q00526+P24864)
FYN (human) = FYN (human) (UniProt P06241)
LTK (human) = LTK (human) (UniProt P29376)
Sequence of LTK (human) (P29376 whole entry, looked up): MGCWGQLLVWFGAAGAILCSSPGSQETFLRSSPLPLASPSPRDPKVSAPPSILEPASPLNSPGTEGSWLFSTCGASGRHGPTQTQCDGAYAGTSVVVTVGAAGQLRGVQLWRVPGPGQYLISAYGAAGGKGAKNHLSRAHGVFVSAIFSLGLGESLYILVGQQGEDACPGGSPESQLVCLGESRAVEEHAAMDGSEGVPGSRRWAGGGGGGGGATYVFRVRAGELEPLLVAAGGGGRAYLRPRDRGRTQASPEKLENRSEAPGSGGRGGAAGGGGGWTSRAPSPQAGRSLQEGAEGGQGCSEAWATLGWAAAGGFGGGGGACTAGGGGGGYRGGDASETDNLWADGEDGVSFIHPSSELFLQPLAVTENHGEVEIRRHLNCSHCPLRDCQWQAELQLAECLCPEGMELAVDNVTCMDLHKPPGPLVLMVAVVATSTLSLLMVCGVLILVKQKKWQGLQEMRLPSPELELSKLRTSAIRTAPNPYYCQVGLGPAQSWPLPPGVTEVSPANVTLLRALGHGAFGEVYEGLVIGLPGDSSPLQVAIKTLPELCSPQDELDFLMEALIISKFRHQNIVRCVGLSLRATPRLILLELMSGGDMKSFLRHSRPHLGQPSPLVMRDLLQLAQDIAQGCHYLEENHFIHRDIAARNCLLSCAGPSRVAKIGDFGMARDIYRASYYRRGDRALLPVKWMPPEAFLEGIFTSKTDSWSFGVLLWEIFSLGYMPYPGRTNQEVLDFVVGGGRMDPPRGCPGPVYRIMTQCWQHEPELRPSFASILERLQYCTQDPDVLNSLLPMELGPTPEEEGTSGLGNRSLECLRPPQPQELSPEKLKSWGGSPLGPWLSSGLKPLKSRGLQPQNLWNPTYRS

STK11 (human) = STK11 (human) (UniProt Q15831)
STK16 (human) = STK16 (human) (UniProt O75716)
Sequence of STK16 (human) (O75716 whole entry, looked up): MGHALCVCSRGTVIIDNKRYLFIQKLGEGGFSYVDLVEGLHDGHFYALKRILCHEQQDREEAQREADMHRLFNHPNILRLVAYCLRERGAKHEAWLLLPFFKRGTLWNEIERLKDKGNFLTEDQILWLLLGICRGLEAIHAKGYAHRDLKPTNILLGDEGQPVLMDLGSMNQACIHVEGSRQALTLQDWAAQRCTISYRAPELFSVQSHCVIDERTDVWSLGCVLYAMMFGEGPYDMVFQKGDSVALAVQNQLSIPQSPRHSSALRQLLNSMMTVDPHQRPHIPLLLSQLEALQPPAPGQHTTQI

TAOK2 (human) = TAOK2 (human) (UniProt Q9UL54)
STK10 (human) = STK10 (human) (UniProt O94804)
PRKD1 (human) = PRKD1 (human) (UniProt Q15139)
Sequence of PRKD1 (human) (Q15139 whole entry, looked up): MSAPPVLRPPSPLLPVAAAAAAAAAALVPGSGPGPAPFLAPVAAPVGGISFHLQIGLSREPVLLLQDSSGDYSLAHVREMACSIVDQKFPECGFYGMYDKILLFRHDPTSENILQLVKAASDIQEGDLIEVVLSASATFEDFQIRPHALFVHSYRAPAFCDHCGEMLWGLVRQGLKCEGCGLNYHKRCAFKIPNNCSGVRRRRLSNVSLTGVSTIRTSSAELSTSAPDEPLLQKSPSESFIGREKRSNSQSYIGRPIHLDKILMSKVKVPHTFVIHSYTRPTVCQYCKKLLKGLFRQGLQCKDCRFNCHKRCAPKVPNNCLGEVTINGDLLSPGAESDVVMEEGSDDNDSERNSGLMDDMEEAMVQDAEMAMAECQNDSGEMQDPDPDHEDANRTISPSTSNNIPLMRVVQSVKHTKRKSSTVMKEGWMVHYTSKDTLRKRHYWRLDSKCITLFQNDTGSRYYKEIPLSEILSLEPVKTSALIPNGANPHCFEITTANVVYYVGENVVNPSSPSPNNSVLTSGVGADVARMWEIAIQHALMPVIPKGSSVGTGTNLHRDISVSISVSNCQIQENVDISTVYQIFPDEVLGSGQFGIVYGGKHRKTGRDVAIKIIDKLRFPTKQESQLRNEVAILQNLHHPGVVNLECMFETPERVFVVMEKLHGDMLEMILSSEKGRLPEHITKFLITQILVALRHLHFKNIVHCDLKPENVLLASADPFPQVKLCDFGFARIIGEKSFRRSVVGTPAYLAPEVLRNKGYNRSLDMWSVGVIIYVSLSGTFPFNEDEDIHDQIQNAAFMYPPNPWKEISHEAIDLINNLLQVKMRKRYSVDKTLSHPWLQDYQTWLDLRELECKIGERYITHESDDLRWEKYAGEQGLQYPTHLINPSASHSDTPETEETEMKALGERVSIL

CDK7 CCNH MNAT1 (human) = CDK7 CCNH MNAT1 (human) (UniProt P50613+P51948+P51946)
PRKD3 (human) = PRKD3 (human) (UniProt O94806)
STK17A (human) = STK17A (human) (UniProt Q9UEE5)
Sequence of STK17A (human) (Q9UEE5 whole entry, looked up): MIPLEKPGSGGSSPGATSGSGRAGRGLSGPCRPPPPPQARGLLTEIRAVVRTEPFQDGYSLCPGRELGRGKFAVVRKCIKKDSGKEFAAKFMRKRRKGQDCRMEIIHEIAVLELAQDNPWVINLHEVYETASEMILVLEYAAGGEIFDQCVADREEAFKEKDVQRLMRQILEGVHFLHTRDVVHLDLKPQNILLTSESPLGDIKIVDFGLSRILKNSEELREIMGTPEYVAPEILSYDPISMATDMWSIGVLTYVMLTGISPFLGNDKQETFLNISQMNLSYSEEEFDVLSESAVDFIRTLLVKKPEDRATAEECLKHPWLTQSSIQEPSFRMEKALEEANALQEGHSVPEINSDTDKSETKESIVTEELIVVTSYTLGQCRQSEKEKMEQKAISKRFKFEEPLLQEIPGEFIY

CDK2 CCNE1 (human) = CDK2 CCNE1 (human) (UniProt P24941+P24864)
CDC42BPA (human) = CDC42BPA (human) (UniProt Q5VT25)
STK25 (human) = STK25 (human) (UniProt O00506)
RIPK2 (human) = RIPK2 (human) (UniProt O43353)
Sequence of RIPK2 (human) (O43353 whole entry, looked up): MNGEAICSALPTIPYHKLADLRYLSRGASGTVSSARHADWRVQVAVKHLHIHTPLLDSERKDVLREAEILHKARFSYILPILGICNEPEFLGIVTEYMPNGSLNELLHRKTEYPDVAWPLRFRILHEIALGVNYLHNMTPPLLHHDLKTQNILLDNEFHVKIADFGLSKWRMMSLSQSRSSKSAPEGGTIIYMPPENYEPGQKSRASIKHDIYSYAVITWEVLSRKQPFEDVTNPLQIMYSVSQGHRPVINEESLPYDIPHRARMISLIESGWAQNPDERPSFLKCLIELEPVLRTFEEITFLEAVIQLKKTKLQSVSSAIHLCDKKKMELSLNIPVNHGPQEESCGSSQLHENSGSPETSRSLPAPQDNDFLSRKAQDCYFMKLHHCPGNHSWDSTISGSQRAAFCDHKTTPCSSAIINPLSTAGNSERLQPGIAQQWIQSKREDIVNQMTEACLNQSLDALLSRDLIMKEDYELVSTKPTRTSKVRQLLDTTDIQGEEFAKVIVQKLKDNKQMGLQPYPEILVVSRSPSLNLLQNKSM

PRKACA (human) = PRKACA (human) (UniProt P17612)
FGFR1 (human) = FGFR1 (human) (UniProt P11362)
YES1 (human) = YES1 (human) (UniProt P07947)
EPHA4 (human) = EPHA4 (human) (UniProt P54764)
Sequence of EPHA4 (human) (P54764 whole entry, looked up): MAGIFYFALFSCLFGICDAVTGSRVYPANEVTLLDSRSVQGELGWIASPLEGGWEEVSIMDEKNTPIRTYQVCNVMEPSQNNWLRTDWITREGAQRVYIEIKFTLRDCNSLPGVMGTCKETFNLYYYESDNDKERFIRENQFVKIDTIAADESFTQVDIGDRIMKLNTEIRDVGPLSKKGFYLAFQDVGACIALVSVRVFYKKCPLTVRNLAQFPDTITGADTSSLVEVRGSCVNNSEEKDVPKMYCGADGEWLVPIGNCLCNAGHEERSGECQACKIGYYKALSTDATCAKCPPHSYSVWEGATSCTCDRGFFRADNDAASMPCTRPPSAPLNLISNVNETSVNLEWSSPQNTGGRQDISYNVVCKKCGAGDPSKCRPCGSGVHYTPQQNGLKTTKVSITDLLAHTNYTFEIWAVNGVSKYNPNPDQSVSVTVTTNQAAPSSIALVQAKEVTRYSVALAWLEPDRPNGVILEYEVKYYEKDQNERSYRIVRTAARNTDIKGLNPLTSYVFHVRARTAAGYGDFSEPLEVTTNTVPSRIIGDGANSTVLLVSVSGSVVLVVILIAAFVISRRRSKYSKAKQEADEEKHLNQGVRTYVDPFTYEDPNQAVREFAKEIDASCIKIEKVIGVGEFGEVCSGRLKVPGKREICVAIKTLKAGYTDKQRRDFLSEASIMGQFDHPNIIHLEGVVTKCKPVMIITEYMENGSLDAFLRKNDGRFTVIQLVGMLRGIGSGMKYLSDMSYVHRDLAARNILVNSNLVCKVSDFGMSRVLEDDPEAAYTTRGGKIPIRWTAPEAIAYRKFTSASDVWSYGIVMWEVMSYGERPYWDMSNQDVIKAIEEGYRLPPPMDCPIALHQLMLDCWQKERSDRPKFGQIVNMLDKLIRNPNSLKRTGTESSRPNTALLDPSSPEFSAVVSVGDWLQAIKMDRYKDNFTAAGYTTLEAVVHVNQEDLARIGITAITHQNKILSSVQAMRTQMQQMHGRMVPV

HIPK2 (human) = HIPK2 (human) (UniProt Q9H2X6)
PTK6 (human) = PTK6 (human) (UniProt Q13882)
EPHA8 (human) = EPHA8 (human) (UniProt P29322)
CHEK1 (human) = CHEK1 (human) (UniProt O14757)
HIPK1 (human) = HIPK1 (human) (UniProt Q86Z02)
MAP4K4 (human) = MAP4K4 (human) (UniProt O95819)
EPHA2 (human) = EPHA2 (human) (UniProt P29317)
ADRBK1 (human) = ADRBK1 (human) (UniProt P25098)
Sequence of ADRBK1 (human) (P25098 whole entry, looked up): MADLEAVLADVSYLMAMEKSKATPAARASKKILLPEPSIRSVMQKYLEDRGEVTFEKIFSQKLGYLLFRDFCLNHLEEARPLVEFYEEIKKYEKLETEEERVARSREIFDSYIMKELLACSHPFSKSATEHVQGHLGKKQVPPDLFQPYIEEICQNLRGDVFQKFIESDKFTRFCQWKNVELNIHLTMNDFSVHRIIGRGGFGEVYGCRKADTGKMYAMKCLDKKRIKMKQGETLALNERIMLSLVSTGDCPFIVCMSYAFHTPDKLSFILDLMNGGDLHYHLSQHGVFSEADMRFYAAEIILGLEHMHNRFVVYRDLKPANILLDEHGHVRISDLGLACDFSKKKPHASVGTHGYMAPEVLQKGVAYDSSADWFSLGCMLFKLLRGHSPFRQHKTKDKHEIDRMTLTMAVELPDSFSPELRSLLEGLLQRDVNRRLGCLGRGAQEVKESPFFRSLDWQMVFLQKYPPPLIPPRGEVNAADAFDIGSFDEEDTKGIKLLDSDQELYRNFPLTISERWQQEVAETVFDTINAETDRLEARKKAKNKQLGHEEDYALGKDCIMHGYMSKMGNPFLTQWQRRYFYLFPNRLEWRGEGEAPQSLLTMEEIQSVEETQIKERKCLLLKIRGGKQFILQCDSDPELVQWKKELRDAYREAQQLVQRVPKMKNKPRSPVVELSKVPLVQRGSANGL

PAK7 (human) = PAK7 (human) (UniProt Q9P286)
MAP2K1 (human) = MAP2K1 (human) (UniProt Q02750)
ITK (human) = ITK (human) (UniProt Q08881)
MYLK (human) = MYLK (human) (UniProt Q15746)

Structure (SMILES): CCN(CC)CCCCN1c2ccccc2Oc2ccc(Cl)cc21
- residual activity (NUAK2 (human)): 90.9%
- residual activity (MST4 (human)): 98%
- residual activity (GSK3A (human)): 108%
- residual activity (CSNK1G2 (human)): 103%
- residual activity (SGK3 (human)): 101%
- residual activity (PKN2 (human)): 72.4%
- residual activity (AKT1 (human)): 112%
- residual activity (PRKCD (human)): 95.4%
- residual activity (RPS6KB1 (human)): 97.7%
- residual activity (TAOK3 (human)): 110%
- residual activity (PRKD2 (human)): 105%
- residual activity (CDK3 CCNE1 (human)): 90.3%
- residual activity (FYN (human)): 107%
- residual activity (LTK (human)): 98.4%
- residual activity (STK11 (human)): 94.4%
- residual activity (STK16 (human)): 95.2%
- residual activity (TAOK2 (human)): 95.3%
- residual activity (STK10 (human)): 97.1%
- residual activity (PRKD1 (human)): 101%
- residual activity (CDK7 CCNH MNAT1 (human)): 99%
- residual activity (PRKD3 (human)): 97.1%
- residual activity (STK17A (human)): 96.1%
- residual activity (CDK2 CCNE1 (human)): 89.4%
- residual activity (CDC42BPA (human)): 111%
- residual activity (STK25 (human)): 92.6%
- residual activity (RIPK2 (human)): 89.7%
- residual activity (PRKACA (human)): 98.4%
- residual activity (FGFR1 (human)): 105%
- residual activity (YES1 (human)): 88.5%
- residual activity (EPHA4 (human)): 91.9%
- residual activity (HIPK2 (human)): 118%
- residual activity (PTK6 (human)): 95%
- residual activity (EPHA8 (human)): 102%
- residual activity (CHEK1 (human)): 101%
- residual activity (HIPK1 (human)): 106%
- residual activity (MAP4K4 (human)): 104%
- residual activity (EPHA2 (human)): 106%
- residual activity (ADRBK1 (human)): 96.5%
- residual activity (PAK7 (human)): 116%
- residual activity (MAP2K1 (human)): 98.1%
- residual activity (ITK (human)): 101%
- residual activity (MYLK (human)): 97%

- residual activity (NUAK2 (human)): 72.5%
- residual activity (MST4 (human)): 75.3%
- residual activity (GSK3A (human)): 16.5%
- residual activity (CSNK1G2 (human)): 89.4%
- residual activity (SGK3 (human)): 102%
- residual activity (PKN2 (human)): 97.8%
- residual activity (AKT1 (human)): 97.8%
- residual activity (PRKCD (human)): 95%
- residual activity (RPS6KB1 (human)): 75.9%
- residual activity (TAOK3 (human)): 62.6%
- residual activity (PRKD2 (human)): 89%
- residual activity (CDK3 CCNE1 (human)): 52.3%
- residual activity (FYN (human)): 43.3%
- residual activity (LTK (human)): 62.3%
- residual activity (STK11 (human)): 25.6%
- residual activity (STK16 (human)): 54.8%
- residual activity (TAOK2 (human)): 96.3%
- residual activity (STK10 (human)): 74%
- residual activity (PRKD1 (human)): 85%
- residual activity (CDK7 CCNH MNAT1 (human)): 89.9%
- residual activity (PRKD3 (human)): 88.4%
- residual activity (STK17A (human)): 46%
- residual activity (CDK2 CCNE1 (human)): 31.3%
- residual activity (CDC42BPA (human)): 93.7%
- residual activity (STK25 (human)): 87.5%
- residual activity (RIPK2 (human)): 72.3%
- residual activity (PRKACA (human)): 107%
- residual activity (FGFR1 (human)): 52.2%
- residual activity (YES1 (human)): 45.1%
- residual activity (EPHA4 (human)): 89.4%
- residual activity (HIPK2 (human)): 104%
- residual activity (PTK6 (human)): 97.2%
- residual activity (EPHA8 (human)): 91.1%
- residual activity (CHEK1 (human)): 65.3%
- residual activity (HIPK1 (human)): 98.9%
- residual activity (MAP4K4 (human)): 42%
- residual activity (EPHA2 (human)): 84.3%
- residual activity (ADRBK1 (human)): 89.5%
- residual activity (PAK7 (human)): 89.3%
- residual activity (MAP2K1 (human)): 99.6%
- residual activity (ITK (human)): 53%
- residual activity (MYLK (human)): 65%
Structure (SMILES): O=C1Nc2ccccc2/C1=C1\Nc2ccccc2\C1=N/O

Structure (SMILES): COc1ccc(CNC(=O)Nc2ncc([N+](=O)[O-])s2)cc1
- residual activity (NUAK2 (human)): 89.9%
- residual activity (MST4 (human)): 113%
- residual activity (GSK3A (human)): 13.5%
- residual activity (CSNK1G2 (human)): 100%
- residual activity (SGK3 (human)): 96.9%
- residual activity (PKN2 (human)): 101%
- residual activity (AKT1 (human)): 102%
- residual activity (PRKCD (human)): 100%
- residual activity (RPS6KB1 (human)): 85.4%
- residual activity (TAOK3 (human)): 98.5%
- residual activity (PRKD2 (human)): 97.3%
- residual activity (CDK3 CCNE1 (human)): 94.8%
- residual activity (FYN (human)): 102%
- residual activity (LTK (human)): 101%
- residual activity (STK11 (human)): 100%
- residual activity (STK16 (human)): 99.9%
- residual activity (TAOK2 (human)): 98.5%
- residual activity (STK10 (human)): 94.3%
- residual activity (PRKD1 (human)): 104%
- residual activity (CDK7 CCNH MNAT1 (human)): 94.8%
- residual activity (PRKD3 (human)): 93.4%
- residual activity (STK17A (human)): 91.6%
- residual activity (CDK2 CCNE1 (human)): 97.6%
- residual activity (CDC42BPA (human)): 93.7%
- residual activity (STK25 (human)): 98.6%
- residual activity (RIPK2 (human)): 82.8%
- residual activity (PRKACA (human)): 96.9%
- residual activity (FGFR1 (human)): 98.9%
- residual activity (YES1 (human)): 96.1%
- residual activity (EPHA4 (human)): 101%
- residual activity (HIPK2 (human)): 103%
- residual activity (PTK6 (human)): 99.6%
- residual activity (EPHA8 (human)): 109%
- residual activity (CHEK1 (human)): 98%
- residual activity (HIPK1 (human)): 100%
- residual activity (MAP4K4 (human)): 98.8%
- residual activity (EPHA2 (human)): 100%
- residual activity (ADRBK1 (human)): 96.4%
- residual activity (PAK7 (human)): 95.4%
- residual activity (MAP2K1 (human)): 101%
- residual activity (ITK (human)): 89.5%
- residual activity (MYLK (human)): 94.1%

- residual activity (NUAK2 (human)): 55.1%
- residual activity (MST4 (human)): 73.1%
- residual activity (GSK3A (human)): 7.31%
- residual activity (CSNK1G2 (human)): 85.2%
- residual activity (SGK3 (human)): 100%
- residual activity (PKN2 (human)): 90.1%
- residual activity (AKT1 (human)): 95.6%
- residual activity (PRKCD (human)): 80.6%
- residual activity (RPS6KB1 (human)): 47.8%
- residual activity (TAOK3 (human)): 55.4%
- residual activity (PRKD2 (human)): 74.3%
- residual activity (CDK3 CCNE1 (human)): 65.2%
- residual activity (FYN (human)): 13%
- residual activity (LTK (human)): 34.7%
- residual activity (STK11 (human)): 5.77%
- residual activity (STK16 (human)): 12.7%
- residual activity (TAOK2 (human)): 83.4%
- residual activity (STK10 (human)): 52.1%
- residual activity (PRKD1 (human)): 72.7%
- residual activity (CDK7 CCNH MNAT1 (human)): 77.9%
- residual activity (PRKD3 (human)): 68.1%
- residual activity (STK17A (human)): 22.5%
- residual activity (CDK2 CCNE1 (human)): 23.1%
- residual activity (CDC42BPA (human)): 88.6%
- residual activity (STK25 (human)): 74%
- residual activity (RIPK2 (human)): 62.8%
- residual activity (PRKACA (human)): 89.1%
- residual activity (FGFR1 (human)): 27.9%
- residual activity (YES1 (human)): 13.4%
- residual activity (EPHA4 (human)): 77.9%
- residual activity (HIPK2 (human)): 97.6%
- residual activity (PTK6 (human)): 73.3%
- residual activity (EPHA8 (human)): 91.9%
- residual activity (CHEK1 (human)): 67%
- residual activity (HIPK1 (human)): 96%
- residual activity (MAP4K4 (human)): 11.6%
- residual activity (EPHA2 (human)): 65.3%
- residual activity (ADRBK1 (human)): 101%
- residual activity (PAK7 (human)): 81%
- residual activity (MAP2K1 (human)): 99.7%
- residual activity (ITK (human)): 34.8%
- residual activity (MYLK (human)): 32.3%
Structure (SMILES): O=C1Nc2ccccc2/C1=C1/Nc2ccccc2/C1=N\OCCC(O)CO (stereo not drawn)

— the kinase profiling compilation of Christmann-Franck et al. (2016)
